Structures can show the parent of a compound that is named as a salt. Where two headings read alike, the source gives them in different places.
Legend:
human OX1 receptor = biological target: T1, human OX1 receptor (Homo sapiens, UniProt O43613); assay: Measurement of orexin receptor antagonistic activity (calcium fluorescence, FLIPRtetra); format: cell-based; conditions: CHO, read-out: Human Orexin1 receptor inhibition (at 10 μM)
T1 construct: expressed in transfected cells; host or cells: CHO cells
T1 sequence (O43613 1-425): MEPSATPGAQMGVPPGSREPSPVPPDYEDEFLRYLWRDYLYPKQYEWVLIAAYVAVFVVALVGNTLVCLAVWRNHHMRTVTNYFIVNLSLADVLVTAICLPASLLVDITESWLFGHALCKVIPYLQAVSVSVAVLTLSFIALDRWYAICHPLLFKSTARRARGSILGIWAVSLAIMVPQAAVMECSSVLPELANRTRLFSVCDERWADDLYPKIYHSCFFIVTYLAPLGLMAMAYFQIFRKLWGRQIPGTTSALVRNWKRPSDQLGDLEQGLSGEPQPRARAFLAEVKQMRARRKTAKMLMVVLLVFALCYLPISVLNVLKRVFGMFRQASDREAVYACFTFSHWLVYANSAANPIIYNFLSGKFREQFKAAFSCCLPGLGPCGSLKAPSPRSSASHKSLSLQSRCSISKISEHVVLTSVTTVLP
Method in brief: (§1)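 CHO cells expressing human OX1 or OX2 receptor, cultured one day. Compound in HBSS/20 mM HEPES/0.1% BSA added, then orexin-A at 1 nM final (OX1) or 0.3 nM final (OX2); calcium fluorescence by FLIPRtetra every 1 s for 2 min.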

human OX2 receptor = biological target: T2, human OX2 receptor (Homo sapiens, UniProt O43614); assay: as above; format: cell-based; conditions: CHO, read-out: Human Orexin2 receptor inhibition (at 10 μM)
T2 construct: expressed in transfected cells; host or cells: CHO cells
T2 sequence (O43614 1-444): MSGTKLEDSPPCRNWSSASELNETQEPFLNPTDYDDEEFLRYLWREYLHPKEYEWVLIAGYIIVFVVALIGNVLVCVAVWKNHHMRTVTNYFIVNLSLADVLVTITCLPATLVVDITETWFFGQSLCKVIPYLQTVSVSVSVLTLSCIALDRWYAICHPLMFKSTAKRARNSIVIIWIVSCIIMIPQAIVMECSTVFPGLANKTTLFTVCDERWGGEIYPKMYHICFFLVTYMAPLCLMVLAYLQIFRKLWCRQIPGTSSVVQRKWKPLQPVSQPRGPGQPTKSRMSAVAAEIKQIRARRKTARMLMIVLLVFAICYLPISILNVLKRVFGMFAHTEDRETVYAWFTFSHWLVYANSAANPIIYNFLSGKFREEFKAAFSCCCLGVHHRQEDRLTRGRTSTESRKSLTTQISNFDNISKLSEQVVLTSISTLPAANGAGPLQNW
Method in brief: as §1

[1] = 10 μM test compound, CHO cells expressing human OX1 receptor, OX-A 1 nM
[2] = 10 μM test compound, CHO cells expressing human OX2 receptor, OX-A 0.3 nM

SMILES | inhibition at 10 µM (human OX1 receptor) [%] | inhibition at 10 µM (human OX2 receptor) [%] | inhibition at 10 µM (human OX1 receptor; [1]) [%] | inhibition at 10 µM (human OX2 receptor; [2]) [%]
Cc1ccc(-n2nccn2)c(C(=O)N2CCN(c3ccc(F)c(Cl)c3)OC[C@H]2C)c1 [Example 134, ((6R)-2-(3-chloro-4-fluorophenyl)-6-methyl-1,2,5-oxadiazepan-5-yl) (5-methyl-2-(2H-1,2,3-triazol-2-yl)phenyl)methanone] | 92 | 80 | – | –
Cc1ccc(-n2nccn2)c(C(=O)N2CCN(c3ccc(F)cc3)OC[C@H]2C)c1 [Example 135, ((6R)-2-(4-fluorophenyl)-6-methyl-1,2,5-oxadiazepan-5-yl) (5-methyl-2-(2H-1,2,3-triazol-2-yl)phenyl)methanone] | 15 | 88 | – | –
Cc1ccc(-n2nccn2)c(C(=O)N2CCN(c3cc(C#N)ccn3)OC[C@H]2C)c1 [Example 136, 2-((6R)-6-methyl-5-(5-methyl-2-(2H-1,2,3-triazol-2-yl)benzoyl)-1,2,5-oxadiazepan-2-yl)isonicotinonitrile] | – | – | 36 | 95
COc1ccnc(N2CCN(C(=O)c3cc(C)ccc3-n3nccn3)[C@H](C)CO2)c1 [Example 137, ((6R)-2-(4-methoxypyridin-2-yl)-6-methyl-1,2,5-oxadiazepan-5-yl) (5-methyl-2-(2H-1,2,3-triazol-2-yl)phenyl)methanone] | 93 | 100 | – | –
Cc1ccc(-n2nccn2)c(C(=O)N2CCN(c3cccc(-n4cccn4)n3)OC[C@H]2C)c1 [Example 138, ((6R)-6-methyl-2-(6-(1H-pyrazol-1-yl)pyridin-2-yl)-1,2,5-oxadiazepan-5-yl) (5-methyl-2-(2H-1,2,3-triazol-2-yl)phenyl)methanone] | 96 | 95 | – | –
Cc1ccc(-n2nccn2)c(C(=O)N2CCN(c3cc(C(F)F)ccn3)OC[C@H]2C)c1 [Example 139, ((6R)-2-(4-(difluoromethyl)pyridin-2-yl)-6-methyl-1,2,5-oxadiazepan-5-yl) (5-methyl-2-(2H-1,2,3-triazol-2-yl)phenyl)methanone] | 54 | 98 | – | –
Cc1ccc(-n2nccn2)c(C(=O)N2CCN(c3cccc(C#N)c3)OC[C@H]2C)c1 [Example 140, 3-((6R)-6-methyl-5-(5-methyl-2-(2H-1,2,3-triazol-2-yl)benzoyl)-1,2,5-oxadiazepan-2-yl)benzonitrile] | 21 | 88 | – | –
Cc1ccc(N2CCN(C(=O)c3cc(C)ccc3-n3nccn3)[C@H](C)CO2)nc1 [Example 141, ((6R)-6-methyl-2-(5-methylpyridin-2-yl)-1,2,5-oxadiazepan-5-yl) (5-methyl-2-(2H-1,2,3-triazol-2-yl)phenyl)methanone] | 71 | 99 | – | –
Cc1cc(C)nc(N2CCN(C(=O)c3cc(C)ccc3-n3nccn3)[C@H](C)CO2)c1 [Example 142, ((6R)-2-(4,6-dimethylpyridin-2-yl)-6-methyl-1,2,5-oxadiazepan-5-yl) (5-methyl-2-(2H-1,2,3-triazol-2-yl)phenyl)methanone] | 99 | 97 | – | –
Cc1ccc(-n2nccn2)c(C(=O)N2CCN(c3cc(C)nc(C)c3)OC[C@H]2C)c1 [Example 143, ((6R)-2-(2,6-dimethylpyridin-4-yl)-6-methyl-1,2,5-oxadiazepan-5-yl) (5-methyl-2-(2H-1,2,3-triazol-2-yl)phenyl)methanone] | 1 | 44 | – | –
Cc1ccc(-n2nccn2)c(C(=O)N2CCN(c3ccnc(C)c3)OC[C@H]2C)c1 [Example 144, ((6R)-6-methyl-2-(2-methylpyridin-4-yl)-1,2,5-oxadiazepan-5-yl) (5-methyl-2-(2H-1,2,3-triazol-2-yl)phenyl)methanone] | 14 | 12 | – | –
Cc1ccc(-n2nccn2)c(C(=O)N2CCN(c3ncccc3C)OC[C@H]2C)c1 [Example 145, ((6R)-6-methyl-2-(3-methylpyridin-2-yl)-1,2,5-oxadiazepan-5-yl) (5-methyl-2-(2H-1,2,3-triazol-2-yl)phenyl)methanone] | 25 | 82 | – | –
Cc1ccc(-n2nccn2)c(C(=O)N2CCN(c3ccnc(C(F)(F)F)c3)OC[C@H]2C)c1 [Example 146, (5-methyl-2-(2H-1,2,3-triazol-2-yl)phenyl) ((6R)-6-methyl-2-(2-(trifluoromethyl)pyridin-4-yl)-1,2,5-oxadiazepan-5-yl)methanone] | 66 | 88 | – | –
Cc1cc(C)nc(N2CCN(C(=O)c3ccccc3-n3nccn3)[C@H](C)CO2)n1 [Example 147, ((6R)-2-(4,6-dimethylpyrimidin-2-yl)-6-methyl-1,2,5-oxadiazepan-5-yl) (2-(2H-1,2,3-triazol-2-yl)phenyl)methanone] | – | – | 60 | 101
Cc1cc(N2CCN(C(=O)c3ccccc3-n3nccn3)[C@H](C)CO2)nc(C)n1 [Example 148, ((6R)-2-(2,6-dimethylpyrimidin-4-yl)-6-methyl-1,2,5-oxadiazepan-5-yl) (2-(2H-1,2,3-triazol-2-yl)phenyl)methanone] | – | – | 53 | 100
C[C@@H]1CON(c2ncc(F)c(O)n2)CCN1C(=O)c1ccccc1-n1nccn1 [Example 149, ((6R)-2-(5-fluoro-4-hydroxypyrimidin-2-yl)-6-methyl-1,2,5-oxadiazepan-5-yl) (2-(2H-1,2,3-triazol-2-yl)phenyl)methanone] | – | – | 3 | -6
C[C@@H]1CON(c2cc(C3CC3)ncn2)CCN1C(=O)c1ccccc1-n1nccn1 [Example 150, ((6R)-2-(6-cyclopropylpyrimidin-4-yl)-6-methyl-1,2,5-oxadiazepan-5-yl) (2-(2H-1,2,3-triazol-2-yl)phenyl)methanone] | – | – | 58 | 99
CCc1ccnc(N2CCN(C(=O)c3ccccc3-n3nccn3)[C@H](C)CO2)n1 [Example 151, ((6R)-2-(4-ethylpyrimidin-2-yl)-6-methyl-1,2,5-oxadiazepan-5-yl) (2-(2H-1,2,3-triazol-2-yl)phenyl)methanone] | – | – | 81 | 98
Cc1cc(C#N)nc(N2CCN(C(=O)c3ccccc3-n3nccn3)[C@H](C)CO2)n1 [Example 152, 6-methyl-2-((6R)-6-methyl-5-(2-(2H-1,2,3-triazol-2-yl)benzoyl)-1,2,5-oxadiazepan-2-yl)pyrimidine-4-carbonitrile] | – | – | 82 | 99
COc1cc(N2CCN(C(=O)c3ccccc3-n3nccn3)[C@H](C)CO2)nc(OC)n1 [Example 153, ((6R)-2-(2,6-dimethoxypyrimidin-4-yl)-6-methyl-1,2,5-oxadiazepan-5-yl)(2-(2H-1,2,3-triazol-2-yl)phenyl)methanone] | – | – | 94 | 99
Cc1cc(N2CCN(C(=O)c3ccccc3-n3nccn3)[C@H](C)CO2)nc(C(C)(C)C)n1 [Example 154, ((6R)-2-(2-tert-butyl-6-methylpyrimidin-4-yl)-6-methyl-1,2,5-oxadiazepan-5-yl)(2-(2H-1,2,3-triazol-2-yl)phenyl)methanone] | – | – | 97 | 91
Cc1cc(N2CCN(C(=O)c3ccccc3-n3nccn3)[C@H](C)CO2)nc(C2(C)CC2)n1 [Example 155, ((6R)-6-methyl-2-(6-methyl-2-(1-methylcyclopropyl)pyrimidin-4-yl-1,2,5-oxadiazepan-5-yl)(2-(2H-1,2,3-triazol-2-yl)phenyl)methanone hydrochloride] | – | – | 100 | 103
Cc1ccc(C#N)c(N2CCN(C(=O)c3ccccc3-n3nccn3)[C@H](C)CO2)n1 [Example 156, 6-methyl-2-((6R)-6-methyl-5-(2-(2H-1,2,3-triazol-2-yl)benzoyl)-1,2,5-oxadiazepan-2-yl)nicotinonitrile] | – | – | 18 | 19
COc1cccc(N2CCN(C(=O)c3ccccc3-n3nccn3)[C@H](C)CO2)n1 [Example 157, ((6R)-2-(6-methoxypyridin-2-yl)-6-methyl-1,2,5-oxadiazepan-5-yl)(2-(2H-1,2,3-triazol-2-yl)phenyl)methanone] | – | – | 93 | 91

— US10131653B2, “Heterocyclic compound” (TAKEDA PHARMACEUTICAL COMPANY LIMITED, priority 2015, dated 2018)
